Measurements taken from US20170172955A1, “Treatment of Mixed Dyslipidemia” (priority 2015, published 2017).
Read-outs that look alike come from different tables or passages of the source.

Legend:
CYP2C9 = CYP2C9 (Homo sapiens, UniProt P11712); assay: biochemical
Protocol: Human livers, HLM141, HLM143, and HLM144 were selected from the University of Washington Human Liver Bank for this study. […] The actual concentrations used for each of the other probes are specified below. […] The seven isoforms and the metabolic pathway of each of the probes used to monitor specific isoform activity are listed below.
CYP2C9: The 7-hydroxylation of (S)-warfarin (4 μM). The reaction is monitored by quantitative GC/MS using 7-hydroxywarfarin-(d5-phenyl) as the internal standard.

[1] = system: STAM model of non-alcoholic steatohepatitis (NASH); conditions: for Sirius Red positive area (mean ± SD) / NAFLD Activity score, NAS (mean ± SD) / Fasting blood glucose (mean ± SD) / Plasma insulin (mean ± SD) / Liver hydroxyl-proline (mean ± SD) / Liver triglyceride (mean ± SD) / Non-fasting blood glucose (mean ± SD) / Plasma ALT (mean ± SD) / Plasma AST (mean ± SD) / Plasma ketone body (mean ± SD): STAM mice; for Fasting blood glucose (mean ± SD) / Plasma insulin (mean ± SD): Day 18, 8 hours of fasting; for Liver hydroxyl-proline (mean ± SD) / Liver triglyceride (mean ± SD) / Non-fasting blood glucose (mean ± SD) / Plasma ALT (mean ± SD) / Plasma AST (mean ± SD) / Plasma ketone body (mean ± SD): termination (Day 21)
Protocol: Telmisartan (Micardis®) was purchased from Boehringer Ingelheim GmbH (Germany) and dissolved in pure water.
Telmisartan was administered at a dose of 10 mg/kg once daily.
Measurement of whole blood and plasma biochemistry: Eight-hour fasting blood samples were collected from facial vein at 3 days prior to termination.
Eight-hour fasting blood glucose was measured in whole blood using Life Check (EIDIA Co. Ltd., Japan). For plasma biochemistry, eight-hour fasting blood was collected in polypropylene tubes with anticoagulant (Novo-Heparin, Mochida Pharmaceutical, Japan) and centrifuged at 1,000×g for 15 minutes at 4° C. The supernatant was collected and stored at −80° C. until use. Plasma insulin levels were quantified by Ultra Sensitive Mouse Insulin ELISA kit (Morinaga Institute of Biological Science, Inc., Japan).
On the day of termination, non-fasting blood glucose was measured in whole blood using Life Check. For plasma biochemistry, non-fasting blood was collected in polypropylene tubes with anticoagulant (Novo-Heparin) and centrifuged at 1,000×g for 15 minutes at 4° C. The supernatant was collected and stored at −80° C. until use. Plasma ALT, AST, ALP, GGT, BUN, creatinine and total bilirubin levels were measured by FUJI DRI-CHEM 7000 (Fujifilm Corporation, Japan). Plasma ketone body levels were quantified by EnzyChrom™ Ketone Body Assay Kit (BioAssay Systems, USA). […]
Histological analyses: For HE staining, sections were cut from paraffin blocks of liver tissue prefixed in Bouin's solution and stained with Lillie-Mayer's Hematoxylin (Muto Pure Chemicals Co., Ltd., Japan) and eosin solution (Wako Pure Chemical Industries). […] To visualize collagen deposition, Bouin's fixed liver sections were stained using picro-Sirius red solution (Waldeck, Germany). […]
Statistical analyses were performed using Bonferroni Multiple Comparison Test on GraphPad Prism 6 (GraphPad Software Inc., USA). […] Results were expressed as mean±SD.
The viability, clinical signs and behavior were monitored daily. Body weight was recorded before the treatment. […] The animals were sacrificed by exsanguination through direct cardiac puncture under isoflurane anesthesia (Pfizer Inc.) at 9 weeks of age.

[2] = gemcabene 30 mg/kg PO QD, n = 8
[3] = gemcabene 100 mg/kg PO QD, n = 8
[4] = gemcabene 300 mg/kg PO QD, n = 8

Chain of CYP2C9 (P11712 whole entry, canonical isoform): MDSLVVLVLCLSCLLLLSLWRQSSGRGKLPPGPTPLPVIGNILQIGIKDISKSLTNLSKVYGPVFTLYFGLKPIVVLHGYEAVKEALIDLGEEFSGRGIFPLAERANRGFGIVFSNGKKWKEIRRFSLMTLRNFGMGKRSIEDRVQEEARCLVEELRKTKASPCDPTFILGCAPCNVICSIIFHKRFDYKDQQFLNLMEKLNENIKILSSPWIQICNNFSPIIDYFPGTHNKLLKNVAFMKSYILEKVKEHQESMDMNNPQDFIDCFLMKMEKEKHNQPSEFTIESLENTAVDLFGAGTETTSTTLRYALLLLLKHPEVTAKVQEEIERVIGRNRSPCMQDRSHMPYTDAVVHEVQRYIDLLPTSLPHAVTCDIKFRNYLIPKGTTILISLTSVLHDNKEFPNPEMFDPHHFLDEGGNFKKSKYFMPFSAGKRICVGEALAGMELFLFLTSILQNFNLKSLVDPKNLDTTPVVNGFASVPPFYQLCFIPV

CC(C)(CCCCOCCCCC(C)(C)C(=O)O)C(=O)O [Gemcabene, 6,6′-oxybis(2,2-dimethylhexanoic acid)]
IC50 (CYP2C9): > 1.5 mM
IC50 (CYP2C9; human, microsomes): > 1.5 mM
Sirius Red positive area (mean ± SD) ([1]; gemcabene 30 mg/kg PO QD 6-9 wks): 0.56 ± 0.18%
NAFLD Activity score, NAS (mean ± SD) ([1]; gemcabene 30 mg/kg PO QD 6-9 wks, n = 8): 3.4 ± 1.1
Fasting blood glucose (mean ± SD) ([1]; gemcabene 30 mg/kg PO QD): 437 ± 42 mg/dL
Plasma insulin (mean ± SD) ([1]; gemcabene 30 mg/kg PO QD): 0.13 ± 0.04 ng/mL
Liver hydroxyl-proline (mean ± SD) ([1]; gemcabene 30 mg/kg PO QD): 0.66 ± 0.12 μg/mg total protein
Liver triglyceride (mean ± SD) ([1]; gemcabene 30 mg/kg PO QD): 49.2 ± 8.6 mg/g liver
Non-fasting blood glucose (mean ± SD) ([1]; gemcabene 30 mg/kg PO QD): 607 ± 48 mg/dL
Plasma ALT (mean ± SD) ([1]; gemcabene 30 mg/kg PO QD): 41 ± 15 U/L
Plasma AST (mean ± SD) ([1]; gemcabene 30 mg/kg PO QD): 100 ± 44 U/L
Plasma ketone body (mean ± SD) ([1]; gemcabene 30 mg/kg PO QD): 9.43 ± 2.35 mM
Sirius Red positive area (mean ± SD) ([1]; gemcabene 100 mg/kg PO QD 6-9 wks): 0.53 ± 0.18%
NAFLD Activity score, NAS (mean ± SD) ([1]; gemcabene 100 mg/kg PO QD 6-9 wks, n = 8): 3.6 ± 1.4
Fasting blood glucose (mean ± SD) ([1]; gemcabene 100 mg/kg PO QD): 441 ± 46 mg/dL
Plasma insulin (mean ± SD) ([1]; gemcabene 100 mg/kg PO QD): 0.17 ± 0.06 ng/mL
Liver hydroxyl-proline (mean ± SD) ([1]; gemcabene 100 mg/kg PO QD): 0.74 ± 0.38 μg/mg total protein
Liver triglyceride (mean ± SD) ([1]; gemcabene 100 mg/kg PO QD): 58.4 ± 14.5 mg/g liver
Non-fasting blood glucose (mean ± SD) ([1]; gemcabene 100 mg/kg PO QD): 653 ± 53 mg/dL
Plasma ALT (mean ± SD) ([1]; gemcabene 100 mg/kg PO QD): 27 ± 7 U/L
Plasma AST (mean ± SD) ([1]; gemcabene 100 mg/kg PO QD): 88 ± 32 U/L
Plasma ketone body (mean ± SD) ([1]; gemcabene 100 mg/kg PO QD): 5.75 ± 3.24 mM
Sirius Red positive area (mean ± SD) ([1]; gemcabene 300 mg/kg PO QD 6-9 wks): 0.59 ± 0.16%
NAFLD Activity score, NAS (mean ± SD) ([1]; gemcabene 300 mg/kg PO QD 6-9 wks, n = 8): 2.5 ± 0.8
Fasting blood glucose (mean ± SD) ([1]; gemcabene 300 mg/kg PO QD): 407 ± 15 mg/dL
Plasma insulin (mean ± SD) ([1]; gemcabene 300 mg/kg PO QD): 0.13 ± 0.04 ng/mL
Liver hydroxyl-proline (mean ± SD) ([1]; gemcabene 300 mg/kg PO QD): 0.70 ± 0.10 μg/mg total protein
Liver triglyceride (mean ± SD) ([1]; gemcabene 300 mg/kg PO QD): 56.0 ± 13.9 mg/g liver
Non-fasting blood glucose (mean ± SD) ([1]; gemcabene 300 mg/kg PO QD): 638 ± 63 mg/dL
Plasma ALT (mean ± SD) ([1]; gemcabene 300 mg/kg PO QD): 32 ± 14 U/L
Plasma AST (mean ± SD) ([1]; gemcabene 300 mg/kg PO QD): 147 ± 122 U/L
Plasma ketone body (mean ± SD) ([1]; gemcabene 300 mg/kg PO QD): 5.68 ± 3.08 mM
number of mice with Hepatocyte ballooning score 0 (None) [1, 2]: 4
number of mice with Hepatocyte ballooning score 1 (Few balloon cells) [1, 2]: 2
number of mice with Hepatocyte ballooning score 2 (Many cells/prominent ballooning) [1, 2]: 2
number of mice with Lobular inflammation score 0 (No foci) [1, 2]: 1
number of mice with Lobular inflammation score 1 (<2 foci/200x) [1, 2]: 2
number of mice with Lobular inflammation score 2 (2-4 foci/200x) [1, 2]: 4
number of mice with Lobular inflammation score 3 (>4 foci/200x) [1, 2]: 1
number of mice with Steatosis score 1 (5-33%) [1, 2]: 8
number of mice with Hepatocyte ballooning score 0 (None) [1, 3]: 1
number of mice with Hepatocyte ballooning score 1 (Few balloon cells) [1, 3]: 4
number of mice with Hepatocyte ballooning score 2 (Many cells/prominent ballooning) [1, 3]: 3
number of mice with Lobular inflammation score 0 (No foci) [1, 3]: 2
number of mice with Lobular inflammation score 1 (<2 foci/200x) [1, 3]: 1
number of mice with Lobular inflammation score 2 (2-4 foci/200x) [1, 3]: 5
number of mice with Steatosis score 1 (5-33%) [1, 3]: 8
number of mice with Hepatocyte ballooning score 0 (None) [1, 4]: 4
number of mice with Hepatocyte ballooning score 1 (Few balloon cells) [1, 4]: 3
number of mice with Hepatocyte ballooning score 2 (Many cells/prominent ballooning) [1, 4]: 1
number of mice with Lobular inflammation score 0 (No foci) [1, 4]: 2
number of mice with Lobular inflammation score 1 (<2 foci/200x) [1, 4]: 2
number of mice with Lobular inflammation score 2 (2-4 foci/200x) [1, 4]: 4
number of mice with Steatosis score 0 (<5%) [1, 4]: 3
number of mice with Steatosis score 1 (5-33%) [1, 4]: 5
